The assay deals with T1, human IR(B) (Homo sapiens, UniProt P06213).
T1 construct: expressed in transfected cells; host or cells: CHO cells (membrane preparation)
The experiment in a line: Insulin receptor binding assay (SPA, 125[I]-insulin competition). The conditions noted are these: cell membranes from CHO cells overexpressing human IR(B). As to the method:
Cell membranes were prepared in 50 mM Tris buffer, pH 7.8 containing 5 mM MgCl2.

T1 sequence (P06213 28-758 limits assumed): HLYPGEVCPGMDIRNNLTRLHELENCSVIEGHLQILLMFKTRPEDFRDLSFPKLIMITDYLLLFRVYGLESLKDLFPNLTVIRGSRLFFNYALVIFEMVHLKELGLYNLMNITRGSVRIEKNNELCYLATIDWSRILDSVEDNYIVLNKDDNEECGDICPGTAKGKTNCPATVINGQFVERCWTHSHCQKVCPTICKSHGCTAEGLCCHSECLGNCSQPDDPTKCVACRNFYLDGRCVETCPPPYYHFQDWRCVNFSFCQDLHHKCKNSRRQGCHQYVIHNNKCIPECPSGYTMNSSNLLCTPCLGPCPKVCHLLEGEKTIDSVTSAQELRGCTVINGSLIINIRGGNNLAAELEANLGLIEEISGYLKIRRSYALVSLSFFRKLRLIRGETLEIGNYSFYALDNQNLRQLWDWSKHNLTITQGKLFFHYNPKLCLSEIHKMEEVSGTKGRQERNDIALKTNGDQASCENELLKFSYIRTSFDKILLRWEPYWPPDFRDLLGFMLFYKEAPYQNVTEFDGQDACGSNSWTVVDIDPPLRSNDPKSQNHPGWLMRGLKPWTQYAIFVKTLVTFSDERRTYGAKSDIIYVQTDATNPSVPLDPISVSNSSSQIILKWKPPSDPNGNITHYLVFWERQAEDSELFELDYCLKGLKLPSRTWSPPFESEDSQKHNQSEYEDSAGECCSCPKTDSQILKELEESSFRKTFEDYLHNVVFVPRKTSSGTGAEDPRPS
T1 sequence (P06213 763-1382 partner limits assumed): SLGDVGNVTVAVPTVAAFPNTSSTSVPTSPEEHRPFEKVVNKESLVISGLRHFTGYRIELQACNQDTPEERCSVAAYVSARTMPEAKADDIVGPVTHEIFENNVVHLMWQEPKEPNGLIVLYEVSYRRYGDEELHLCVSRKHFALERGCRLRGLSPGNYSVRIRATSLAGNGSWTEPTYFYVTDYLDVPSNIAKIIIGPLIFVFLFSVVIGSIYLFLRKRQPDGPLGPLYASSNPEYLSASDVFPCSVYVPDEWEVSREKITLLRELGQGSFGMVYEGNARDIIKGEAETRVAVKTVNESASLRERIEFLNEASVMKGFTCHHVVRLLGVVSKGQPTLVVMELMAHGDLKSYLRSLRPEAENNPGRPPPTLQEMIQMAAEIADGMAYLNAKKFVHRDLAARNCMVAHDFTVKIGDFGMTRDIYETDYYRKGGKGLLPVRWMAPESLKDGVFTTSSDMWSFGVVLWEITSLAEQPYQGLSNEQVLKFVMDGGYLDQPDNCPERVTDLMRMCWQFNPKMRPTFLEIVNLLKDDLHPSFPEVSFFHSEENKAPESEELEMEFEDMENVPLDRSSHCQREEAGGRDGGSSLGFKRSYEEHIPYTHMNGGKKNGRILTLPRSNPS

As a reminder, the IC50 is the concentration that gives 50% inhibition. Higher therefore signals a need for much substance. For the substance “N^6,B29, N^6,B29′-(C3-tartaric acid-C3)insulin human [Dimer 85]”, the IC50 came out at 1.8 nM.

The values above are taken from patent US10689430B2, “Insulin receptor partial agonists” (Merck Sharp & Dohme Corp., priority 2016, dated 2020).
